US20190169218A1, “AMPHIPATHIC COMPOUND HAVING NOVEL PENTA-SACCHARIDE HYDROPHILIC GROUP AND USE THEREOF” (Industry-University Cooperation Foundation Hanyang …, priority 2016, published 2019)

Assays:
[1] = system: leucine transporter (LeuT); experiment: LeuT stability, [3H]-Leu binding by scintillation proximity assay (SPA); assay type: biochemical, Aquifex aeolicus; conditions: CMC+0.2 wt %, room temperature, 12 days
Method: The ability of PSAs, PSEs or TPSs (TPS-A/E/ELs) to stabilize leucine transporter (LeuT), a membrane protein, was measured. LeuT purified by DDM was mixed with a solution containing each amphipathic compound, and the mixture was incubated at room temperature for 12 days. The activity of LeuT proteins was measured by scintillation proximity assay (SPA) using a ligand ([^3H]-Leu), and the concentration of PSAs, PSEs, TPSs or DDM was (a) CMC+0.04 wt %, or (b) CMC+0.2 wt %.
Specifically, LeuT stability measurement was performed in the following manner. According to the results of Example 6, PSA-C10, PSA-C11, PSE-C9, PSE-C11, and PSE-C13 were selected as the amphipathic compounds of PSAs and PSEs except for PSA-C9, and wild type leucine transporter (LeuT) was purified from Aquifex aeolicus using TPS-As, TPS-Es and TPS-EL, according to the method described in G. Deckert et al. (Nature 1998, 392, 353-358.). E. coli C41 (DE3) was transformed with a pET16b plasmid containing a gene construct encoding C-terminal 8×His-tagged LeuT, and thus LeuT was expressed in the form of a fusion protein having 8×His tags at the C-terminus in the transformed E. coli C41 (the expression plasmid was provided by Dr. E. Gouaux, Vollum Institute, Portland, Oreg., USA). Briefly, bacterial membranes containing LeuT were treated with 1.0 wt % DDM, and proteins were bound to Ni^2+-NTA resin (Life Technologies, Denmark). LeuT bound to the resin was eluted using a buffer solution containing 20 mM Tris-HCl (pH 8.0), 1 mM NaCl, 199 mM KCl, 0.05% DDM and 300 mM imidazole. Next, about 1.5 mg/mL of protein stock was diluted 10-fold in an equivalent buffer supplemented with TPS-As, TPS-Es, TPS-ELs, PSAs/PSEs (PSA-C10, PSA-C11, PSE-C9, PSE-C11 and PSE-C13) or DDM (control group) to a final concentration of CMC+0.04 wt % or CMC+0.2 wt % without DDM and imidazole. The protein samples were stored at room temperature and centrifuged at designated times. Protein activity was determined by measuring the degree of binding to [^3H]-Leu using scintillation proximity assay (SPA) (M. Quick et al., Proc. Natl, Acad. Sci. U.S.A. 2007, 104, 3603-3608.). Briefly, SPA was performed with 5 μL of each protein sample dissolved in a buffer containing 450 mM NaCl and each test compound. The SPA reaction was performed in the presence of 20 nM [^3H]-Leu and copper chelate (His-Tag) YSi beads (both were purchased from PerkinElmer, Denmark). The degree of binding to [^3H]-Leu was measured using a MicroBeta liquid scintillation counter (PerkinElmer).

[2] = critical micelle concentration (CMC) by hydrophobic fluorescent staining with diphenylhexatriene (DPH); assay type: physicochemical
Description: Methods of measuring CMC are not particularly limited, and methods widely known in the art may be used. For example, a fluorescence staining method using diphenylhexatriene (DPH) may be used.
To characterize PSAs of Preparation Examples 1 to 3 synthesized according to the synthetic method of Example 1; PSEs of Preparation Examples 4 to 7 synthesized according to the synthetic method of Example 2; TPS-Es and TPS-ELs of Preparation Examples 8 to 14 synthesized according to the synthetic method of Example 3; and TPS-As of Preparation Examples 15 to 17 synthesized according to the synthetic method of Example 4, the critical micellar concentrations (CMCs) of PSAs, PSEs and TPSs and the hydrodynamic radii (Rh) of formed micelles were measured.
(§1) Specifically, critical micellar concentrations (CMCs) were measured using hydrophobic fluorescent staining and diphenylhexatriene (DPH), and the hydrodynamic radii (Rh) of micelles formed by each compound at a concentration of 1.0 wt % were measured using dynamic light scattering (DLS). The results were compared with results obtained from an existing amphipathic molecule (detergent), DDM, and are shown in Table 1.

[3] = hydrodynamic radius of micelles by dynamic light scattering (DLS); assay type: physicochemical; conditions: compound at 1.0 wt %
Method: Methods of measuring the radius of micelles are not particularly limited, and methods widely known in the art may be used. For example, dynamic light scattering (DLS) may be used.
as §1
When measuring, each of PSAs, PSEs and TPSs was used at a concentration of 1.0 wt %.

[4] = biological target: T1, human β2 adrenergic receptor (β2AR) (Homo sapiens, UniProt P07550); experiment: β2AR activity by [3H]-dihydroalprenolol radioactive ligand binding assay; assay type: biochemical; conditions: 3 or 5 days at room temperature
T1 construct: Flag; made in house
Method: The membrane protein stabilizing ability of receptors (mBBr-β2ARs) solubilized in PSAs or PSEs was evaluated by measuring the binding activity of the receptors to [^3H]-dihydroalprenolol ([^3H]-DHA).
Specifically, radioactive ligand binding assay was performed as follows. β2ARs purified with 0.1 wt % DDM was concentrated to about 10 mg/mL (approximately 200 μM). β2ARs purified with DDM were used to prepare a master binding mixture containing 10 nM [^3H]-dihydroalprenolol (DHA), which was dissolved in 0.2 wt % of DDM, PSA or PSE and supplemented with 0.5 mg/mL BSA. At a concentration of 0.2 pmol, the activity of the receptors purified with the amphipathic compounds was monitored at regular intervals over a 4-day incubation period. Protein samples were incubated on ice for 2 days and then at room temperature for 2 days. Receptor activity was measured by binding assay for dissolved radioactive ligands. The receptors purified with DDM or a novel formulation (PSA-C11, PSE-C11 or PSE-C13) were incubated with 10 nM [^3H]-DHA at room temperature for 30 minutes. The mixture was loaded onto a G-50 column, a solution passed through the column was collected in 1 mL of a binding buffer (100 mM NaCl and 20 mM HEPES (pH 7.5) supplemented with 0.5 mg/mL BSA and 20×CMC amphipathic compounds), and 15 mL of a scintillation fluid was added to the solution. Receptor-bound [^3H]-DHA was measured using a scintillation counter (Beckman). Non-specific binding of [^3H]-DHA was measured by adding 1 μM alprenolol (Sigma) to the same reaction mixture. The binding degree of the receptors to [^3H]-DHA was represented by a column graph.
The ability of TPSs (TPS-As, TPS-Es and TPS-ELs) to stabilize the structures of human β2 adrenergic receptors (β2ARs) and G protein-coupled receptors (GPCRs) was measured. That is, DDM-purified receptors were diluted with a buffer solution containing only each of the TPSs without cholesteryl hemisuccinate (CHS) or a buffer solution containing CHS and DDM. The final concentration of the compounds was CMC+0.2wt %, and the binding activity of the receptors to ligands was evaluated by measuring the degree of binding of the receptors to [^3H]-dihydroalprenolol ([^3H]-DHA).
Specifically, radioactive ligand binding assay was performed as follows. β2ARs were purified with 0.1 wt % DDM (D. M. Rosenbaum et al., Science, 2007, 318, 1266-1273.) and was concentrated to about 10 mg/mL (approximately 200 μM). β2ARs purified with DDM were used to prepare a master binding mixture containing 10 nM [^3H]-dihydroalprenolol (DHA), which was dissolved in 0.2% amphipathic compounds (DDM or TPSs) and supplemented with 0.5 mg/mL BSA. The activity of the receptors purified with the amphipathic compounds was monitored at regular intervals over a 3- to 5-day incubation period. The receptors purified with DDM or TPSs were incubated with 10 nM [^3H]-DHA at room temperature for 30 minutes. The mixture was loaded onto a G-50 column, a solution passed through the column was collected in 1 mL of a binding buffer (100 mM NaCl and 20 mM HEPES (pH 7.5) supplemented with 0.5 mg/mL BSA and 20×CMC of each amphipathic compound), and 15 mL of a scintillation fluid was added to the solution. Receptor-bound [^3H]-DHA was measured using a scintillation counter (Beckman). The binding degree of the receptors to [^3H]-DHA was represented by a column graph.

T1 sequence (P07550 whole entry): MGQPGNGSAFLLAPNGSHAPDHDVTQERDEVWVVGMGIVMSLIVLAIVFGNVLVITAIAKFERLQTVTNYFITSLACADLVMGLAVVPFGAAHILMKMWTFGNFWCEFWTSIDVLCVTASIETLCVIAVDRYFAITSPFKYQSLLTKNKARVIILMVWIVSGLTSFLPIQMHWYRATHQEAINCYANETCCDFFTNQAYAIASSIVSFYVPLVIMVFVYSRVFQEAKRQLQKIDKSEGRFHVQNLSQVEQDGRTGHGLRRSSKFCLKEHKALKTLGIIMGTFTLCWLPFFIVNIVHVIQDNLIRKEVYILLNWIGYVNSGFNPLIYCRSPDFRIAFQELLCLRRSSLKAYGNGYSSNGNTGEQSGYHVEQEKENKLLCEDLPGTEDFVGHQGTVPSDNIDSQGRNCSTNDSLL

Row | SMILES | LeuT transporter activity retained after 12 days of incubation [1] [%] | CMC [2] [mM] | CMC (wt %) [2] [wt %] | Rh (nm), hydrodynamic radius of micelles [3] [nm] | long-term β2AR activity ([3H]-DHA binding) [4]
1 | CCCCCCCCCCC(CCCCCCCCCC)(CO[C@@H]1O[C@H](CO)[C@@H](O[C@H]2O[C@H](CO)[C@@H](O)[C@H](O)[C@H]2O)[C@H](O)[C@H]1O)CO[C@@H]1O[C@H](CO)[C@@H](O[C@H]2O[C@H](CO)[C@@H](O)[C@H](O)[C@H]2O)[C@H](O)[C@H]1O [MNG-3, reference compound] | 40 | – | – | – | –
2 | CCCCCCCOCC(COCCCCCCC)O[C@@H]1OC(CO[C@@H]2OC(CO)[C@@H](O)C(O)C2O)[C@@H](O[C@@H]2OC(CO)[C@@H](O)C(O)C2O)C(O[C@@H]2OC(CO)[C@@H](O)C(O)C2O)C1O[C@@H]1OC(CO)[C@@H](O)C(O)C1O (some centres unmarked) [PSE-C7] | – | ~0.27 | ~0.0300 | 2.66 ± 0.04 | –
3 | CCCCCCCCCOCC(COCCCCCCCCC)(COCCCCCCCCC)CO[C@@H]1OC(COCCCO[C@@H]2OC(CO)[C@@H](O)C(O)C2O)[C@@H](OCCCO[C@@H]2OC(CO)[C@@H](O)C(O)C2O)C(OCCCO[C@@H]2OC(CO)[C@@H](O)C(O)C2O)C1OCCCO[C@@H]1OC(CO)[C@@H](O)C(O)C1O (some centres unmarked) [TPS-E9L] | – | ~0.004 | ~0.0006 | 4.6 ± 0.18 | significantly better than that of DDM

Second part, the compound after the results:

Row | LeuT transporter activity retained after 12 days of incubation [1] [%] | CMC [2] [mM] | CMC (wt %) [2] [wt %] | Rh (nm), hydrodynamic radius of micelles [3] [nm] | long-term β2AR activity ([3H]-DHA binding) [4] | SMILES
4 | – | ~0.020 | ~0.0024 | 2.9 ± 0.05 | – | CCCCCCOCC(COCCCCCC)(COCCCCCC)CO[C@@H]1OC(CO[C@@H]2OC(CO)[C@@H](O)C(O)C2O)[C@@H](O[C@@H]2OC(CO)[C@@H](O)C(O)C2O)C(O[C@@H]2OC(CO)[C@@H](O)C(O)C2O)C1O[C@@H]1OC(CO)[C@@H](O)C(O)C1O (some centres unmarked) [TPS-E6]
5 | – | ~0.012 | ~0.0015 | 13.0 ± 0.8 | – | CCCCCCCOCC(COCCCCCCC)(COCCCCCCC)CO[C@@H]1OC(CO[C@@H]2OC(CO)[C@@H](O)C(O)C2O)[C@@H](O[C@@H]2OC(CO)[C@@H](O)C(O)C2O)C(O[C@@H]2OC(CO)[C@@H](O)C(O)C2O)C1O[C@@H]1OC(CO)[C@@H](O)C(O)C1O (some centres unmarked) [TPS-E7]
6 | – | ~0.006 | ~0.0009 | 4.5 ± 0.39 | – | CCCCCCCCOCC(COCCCCCCCC)(COCCCCCCCC)CO[C@@H]1OC(COCCCO[C@@H]2OC(CO)[C@@H](O)C(O)C2O)[C@@H](OCCCO[C@@H]2OC(CO)[C@@H](O)C(O)C2O)C(OCCCO[C@@H]2OC(CO)[C@@H](O)C(O)C2O)C1OCCCO[C@@H]1OC(CO)[C@@H](O)C(O)C1O (some centres unmarked) [TPS-E8L]
